Experimental data taken from patent US20090074845A1, “TRANSDERMAL ACTIVE PRINCIPLE DELIVERY MEANS” (priority 2005, published 2009).
Values after ≈ are worked out from the molar mass of the structure shown. Where two headings read alike, the source gives them in different places.

Experiments:
[1] = test system: Herpes simplex virus (HSV); type: cell-based
Method: […]. The cardiac glycosides Digoxin, Digitoxin, Lanoxin and Strophanthin G were also tested.
Using Herpes simplex virus (HSV), 50% plaque inhibitory dose (1D50) were established using the standard plaque inhibition assay. Various solvents were required to facilitate testing and these were sometimes detrimental to tissue culture, depending upon their concentration. […]; experimental conditions in which solvent toxicity was excluded.
(§1) These compounds (Acetazolamide, Tolbutamide and Hydrochiorthiazide) were further tested using alternative solvents in the same test system (ie the plaque inhibition assay) and others (Bumetanide, Torasemide, Tolbutamide and Hydrochlothiazide) in a more sensitive test for ICVT activity in which the effects on virus yields were determined.

[2] = test system: Herpes simplex virus (HSV); test: Comparative ICVT-ivities of Digoxin, Digitoxin and Lanoxin; type: cell-based; conditions: for ID50: 250 ug per ml stock solutions, powder in 70% ethanol, Lanoxin in 10% ethanol; for ICVT-ivity of saturated solution compared with standard: saturated solutions in 90% ethanol
[3] = test system: Herpes simplex virus; test: 50% plaque inhibitory concentration, Herpes simplex virus in MRC5
[4] = Drug release from Glue 1 mass-ratio patches into mobile phase
[5] = test system: feline herpesvirus
[6] = test system: MRC5 cells; conditions: uninfected cells; drug(s) at VZV ID 50 concentrations
[7] = test system: MRC5 cells; test: MRC5 cell morphology (phase contrast microscopy); conditions: Furosemide 1.0 mg/ml; Digoxin 0.05 ug/ml; combined dosage at individual ID 50; 72 hours
[8] = cited from earlier work
[9] = patches F:D 1:1 across pig skin
Method: The ears were washed under running water and full-thickness dorsal skin was separated from the cartilage via blunt dissection using a scalpel, then hair was removed using an electric razor. The skin was cut into samples of approximately 2 cm^2 and visually inspected to ensure that each piece was free from abrasions and blood vessels. Specimens were then stored in a crease free state on aluminium foil at −20° C. until required.
The skin samples were removed from the freezer and left to fully defrost. The donor and receptor compartments of Franz-type diffusion cells (see FIG. 13) were greased, to provide a tight seal and prevent any leakage from the receptor phase. The polymer-lined paper was removed from the patches to expose one side and firmly pressed centrally onto the surface of each piece of skin. After adhesion was established, the skin was mounted onto the flange of a receptor compartment (nominal volume 2.5 ml) of the diffusion sell, ensuring that the patch was placed directly over the flange aperture. […]
D and F were detected using an ultraviolet (UV) detector set at wavelength 220 nm. […]
Chromatogram peaks were integrated manually, and the data corrected for dilution effects. Cumulative release was determined and plotted against the square route of time to determine release rates. Cumulative permeation data were determined and plotted against time to order to obtain flux. […]

[10] = Solubility of the drugs in a range of solvents
Method: A study was performed that measure the solubility of the drugs in a range of solvents.

[11] = Diffusional release of D and F from drug-in-adhesive patches; type: physicochemical
[12] = test system: Cytomegalovirus; test: 50% plaque inhibitory concentration, Cytomegalovirus in MRC5
[13] = Diffusional release of D and F from Collodions; type: physicochemical
Method: Drug mix (for composition see table 2) 0.02 g (a stock was made) was weighted on an analytical balance (accurate to 5 decimal places) and added directly to 10 ml of Collodion and 10 ml of ethanol in a McCartney bottle. The molar ratios used were F:D; 1:1, 1:2.5 (2:5) and 1:10 because a smaller amount of drug mix was used, compared to the drug-in-adhesive and this allowed measurable amounts of F to be used. Each of the McCartney bottles was vortexed for three minutes and left to rotate on a blood serum rotator overnight, to ensure that the mixture was homogeneous and that any air bubbles present had dispersed. Control Collodions were also prepared by the same method, however, no drug mix was added.
Different molar ratios of the two drugs were used to determine affect upon release rate and the extent of the release of each drug. The Collodion, 200 μl, was dispensed to the bottom of general 7 ml glass screw cap vials using a Gilson Pipette and left to dry for three hours. Then 2 ml of dissolution medium, again de-gassed EtOH/water 10:90, was added to each vial. The amount of receptor phase sampled and replenished was 200 μl, with a total of five replicates performed for each treatment.
The injection volume of each sample was 20 μl. […] Data were acquired using Agilent software.

[14] = test system: type 2 herpes simplex strain 3345; test: Inhibition of HSV2 replication in African green monkey kidney cells (Example 3); type: cell-based, herpes simplex virus; conditions: for inhibition at 15 µg/mL: Digoxin 15 mcg/ml; for inhibition at 15 µg/mL / inhibition at 30 µg/mL: Furosemide 0 mg/ml; for inhibition at 30 µg/mL: Digoxin 30 mcg/ml; for inhibition at 500 µg/mL / inhibition at 1000 µg/mL: Digoxin 0 mcg/ml, read-out: Inhibition of virus replication; for inhibition at 500 µg/mL: Furosemide 0.5 mg/ml; for inhibition at 1000 µg/mL: Furosemide 1.0 mg/ml
From the text: The compositions were applied to different types of vero cells (African green monkey kidney cells and BHK1 cells) and infected with type 2 herpes simplex virus (strains 3345 and 180) at low, intermediate, and high multiplicities of infection (MOI). Inhibition of virus replication was scored on the scale:
The following results were obtained using African green monkey kidney cells and type 2 herpes simplex strain 3345: […]

[15] = Drug permeation through porcine ear skin (Franz diffusion cells)
[16] = 72 hours
Method: The receptor fluid was stirred continuously to ensure a homogenous receptor solution.
The drug that accumulated in the skin was also measured. The drug that was present in a 2 cm diameter cross section of skin was calculated for all four formulations.

[17] = test system: Adenovirus; test: 50% plaque inhibitory concentration, Adenovirus in A549; conditions: unidentified adenovirus
[18] = test system: Varicella Zoster Virus (Ellen strain)
[19] = test system: MRC5 cells; test: MRC5 cell replication; conditions: Furosemide 1.0 mg/ml; Digoxin 0.05 ug/ml; both at VZV ID50 concentrations; 72 hours
[20] = test system: Varicella-Zoster virus; test: 50% plaque inhibitory concentration, Varicella-Zoster virus in MRC5
[21] = test system: Herpes simplex virus (HSV); test: HSV virus yield test for ICVT activity; type: cell-based
Method: as §1

[22] = Human alphaherpesvirus 2, read-out: Inhibition of virus replication, HIGH MOI HSV2
[23] = Human alphaherpesvirus 2, read-out: Inhibition of virus replication, LOW MOI HSV2
[24] = Human alphaherpesvirus 2, HIGH MOI HSV2
[25] = Human alphaherpesvirus 2, INT. MOI HSV2
[26] = Human alphaherpesvirus 2, LOW MOI HSV2

Question: With `CC(=O)Nc1nnc(S(N)(=O)=O)s1` [Acetazolamide] as the compound, how does the “ICVT activity (in words)” value ([1]; HSV plaque inhibition assay) read?
Answer: The value was “borderline”.

Question: What does the source list for `C[C@H]1O[C@@H](O[C@H]2[C@@H](O)C[C@H](O[C@H]3[C@@H](O)C[C@H](O[C@H]4CC[C@@]5(C)[C@H](CC[C@@H]6[C@@H]5CC[C@]5(C)[C@@H](C7=CC(=O)OC7)CC[C@]65O)C4)O[C@@H]3C)O[C@@H]2C)C[C@H](O)[C@@H]1O` [Digitoxin]?
Answer: ID50 [2]: 30 ng per ml; ICVT-ivity of saturated solution compared with standard [2]: more effective than Digoxin; ICVT activity (in words) ([1]; HSV plaque inhibition assay): potent ICVT activity

Question: What does the source list for `C[C@H]1O[C@@H](O[C@H]2[C@@H](O)C[C@H](O[C@H]3[C@@H](O)C[C@H](O[C@H]4CC[C@@]5(C)[C@H](CC[C@@H]6[C@@H]5C[C@@H](O)[C@]5(C)[C@@H](C7=CC(=O)OC7)CC[C@]65O)C4)O[C@@H]3C)O[C@@H]2C)C[C@H](O)[C@@H]1O` [Digoxin]?
Answer: IC50 ([3]; MRC5, read-out: Digixin IC50): 0.025 µg/mL (≈ 0.032 µM); permeation coefficient for the patch [4]: 0.16 ×10⁻⁶ cm/s; Virus particles per cell ([5]; Feline herpes virus, drug(s) at IC50, No Drug 50): 0.75; remaining low level of virus replication ([5]; feline herpesvirus, drug at IC50): 0.5%; production of infectious virus reduced by ([5]; feline herpesvirus, drug(s) at IC50): 98.5%; MRC5 cell metabolism (MTT assay) [6]: normal levels of metabolism; effect on MRC5 cell morphology [7]: no adverse effect on cell morphology; ID50 [2]: 60 ng per ml; ICVT-ivity of saturated solution compared with standard [2]: as effective as Lanoxin; solubility ([8]; in diluted (50%) alcohol and in chloroform): slightly soluble; solubility ([8]; in pyridine): freely soluble; solubility ([8]; in water and in ether): practically insoluble; Apparent flux maximum [9]: 3.499 μgcm^−2 h^−1; Q24 permeation % ([9]; % of loading): 0.12%; solubility ([10]; Solvent Methanol): 8200 µg/mL (≈ 10500 µM); solubility ([10]; organic solvent or mixture, Solubility, Solvent Ethanol): 5080 µg/mL (≈ 6500 µM); solubility ([10]; organic solvent or mixture, Solubility, Solvent Ethyl acetate): 20400 µg/mL (≈ 26100 µM); maximum mass/area of digoxin released (maximal dose) [11]: ~136.18 μgcm^−2; IC50 ([12]; Human betaherpesvirus 5, MRC5, read-out: Digixin IC50): 0.02 µg/mL (≈ 0.0256 µM); maximal dose of digoxin released ([13]; from Collodion after 24 hr): ~34.01 μg cm^−2; inhibition at 15 µg/mL [14, 22]: 0%; inhibition at 30 µg/mL [14, 22]: 0%; inhibition at 15 µg/mL ([14]; Human alphaherpesvirus 2, read-out: Inhibition of virus replication, INT. MOI HSV2): 0%; inhibition at 15 µg/mL [14, 23]: 0%; inhibition at 30 µg/mL [14, 23]: 60%; loading dose required ([15]; for flux of 1.04 μg per cm^2 per hour (25 μg per day per cm^2)): 6004.5 μg per cm^3; initial concentration within the patch for the flux to be greater than zero ([15]; from plot of patch concentration vs steady state flux through skin): 804.5 µg/mL; concentration at which the skin was saturated [16]: 12.73 μg/cm^2; concentration at which the skin was saturated ([16]; 2 cm diameter skin section): 40 ug over 3.14 cm^2; IC50 ([17]; A549, read-out: Digixin IC50): 0.015 µg/mL (≈ 0.0192 µM); inhibition [18]: ~50%; uninfected MRC5 cell replication [19]: replicated to normal yields; IC50 ([20]; Human alphaherpesvirus 3, MRC5, read-out: Digixin IC50): 0.05 µg/mL (≈ 0.064 µM); ICVT activity (in words) [1]: potent ICVT activity; mass/area that permeated the skin (Collodion): 8.02 μg cm^−2; Apparent maximum flux (Collodion F:D 1:1 across pig skin): 0.313 μgcm^−2 h^−1; Q24 permeation % (Collodion F:D 1:1 across pig skin, % of loading): 5.39%; AMF (Collodion, calculated between 12-24 hr): 0.313 μg cm^−2 h^−1

Question: Which results are given for `NS(=O)(=O)c1cc(C(=O)O)c(NCc2ccco2)cc1Cl` [Furosemide, 4-chloro-N-furfuryl-5-sulfamoylanthranilic acid]?
Answer: IC50 ([3]; MRC5, read-out: Furosemide IC50): 600 µg/mL (≈ 1810 µM); IC50 ([12]; Human betaherpesvirus 5, MRC5, read-out: Furosemide IC50): 600 µg/mL (≈ 1810 µM); Maximal dose released (furosemide) ([13]; from Collodion after 48 hr): ~6.02 μg cm^−2; inhibition at 500 µg/mL [14, 24]: 0%; inhibition at 1000 µg/mL [14, 24]: 40%; inhibition at 500 µg/mL [14, 25]: 20%; inhibition at 1000 µg/mL [14, 25]: 60%; inhibition at 500 µg/mL [14, 26]: 20%; inhibition at 1000 µg/mL [14, 26]: 60%; IC50 ([17]; A549, read-out: Furosemide IC50): 300 µg/mL (≈ 907 µM); IC50 ([20]; Human alphaherpesvirus 3, MRC5, read-out: Furosemide IC50): 500 µg/mL (≈ 1510 µM); ICVT activity (in words) ([1]; HSV plaque inhibition assay): potent ICVT activity

Question: Which “concentration at which HSV yield reduced to zero” value ([21]; Solvent: NaOH 1% aqueous 10 mg/ml) does the source give for `NS(=O)(=O)c1cc2c(cc1Cl)NCNS2(=O)=O` [Hydrochiorothiazide, Hydrochlorothiazide] here?
Answer: The value was “HSV yield reduced to zero at 600 ug/ml”.

Question: And the “ICVT activity (in words)” value ([1]; HSV plaque inhibition assay)?
Answer: The value was “borderline”.

Question: For `C[C@@H]1O[C@@H](O[C@H]2C[C@@H](O)[C@]3(CO)[C@H]4[C@H](O)C[C@]5(C)[C@@H](C6=CC(=O)OC6)CC[C@]5(O)[C@@H]4CC[C@]3(O)C2)[C@H](O)[C@H](O)[C@H]1O` [Strophanthin G], which “remark on toxicity at the HSV Plaque ID50” value ([1]; 1 mg/ml, Solvent: Aqueous) is on record?
Answer: The value was “Cytotoxic”.

Question: With `CCCCNC(=O)NS(=O)(=O)c1ccc(C)cc1` [Tolbutamide] as the compound, how does the “concentration at which HSV yield reduced to zero” value ([21]; Solvent: PEG 10 mg/ml) read?
Answer: Its value is “HSV yield reduced to zero 300 μg/ml”.

Question: What about the “concentration at which HSV yield reduced to zero” value ([21]; Solvent: PG 10 mg/ml) of the same compound?
Answer: The value was “HSV yield reduced to zero 300 μg/ml”.

Question: What about the “ICVT activity (in words)” value ([1]; HSV plaque inhibition assay) of the same compound?
Answer: Its value is “borderline”.

Question: Which HSV yield ([21]; at 90 μg/ml, Solvent: NaOH 1% aqueous 5 mg/ml) does the source give for `Cc1cccc(Nc2ccncc2S(=O)(=O)NC(=O)NC(C)C)c1` [Torasemide] here?
Answer: The HSV yield was “HSV yield unaffected at 90 μg/ml”.
